In paper PMC7551886, “Antitumour Effects of Astaxanthin and Adonixanthin on Glioblastoma” (Marine Drugs, 2020):

Experiments:
[1] = tested on: Akt; assay: Immunoblotting, phosphorylation of Akt in GL261; assay type: cell-based, mouse; settings: GL261, 10 µM, 6 h post-treatment
Experimental: (§1) GL261 cell was seeded at 2.5 × 10^4 cells per well in 24-well plates with culture medium supplemented with 10% FBS. After 24 h of incubation, the medium was changed to DMEM containing 10% FBS and 0.1%DMSO PBS, 300 μM temozolomide, 10 μM astaxanthin, or 10 μM adonixanthin was added for 6 and 48 h. Cells were lysed in a special buffer (RIPA buffer R0278; Sigma-Aldrich, St. Louis, MO, USA) with a protease inhibitor cocktail (Sigma-Aldrich), phosphatase inhibitor cocktails 2 and 3 (Sigma-Aldrich), and sample buffer (Wako, Osaka, Japan). The protein concentration was determined by comparison with a known concentration of bovine serum albumin using the BCA Protein Assay Kit (Thermo Fisher Scientific). The amount of total protein was 2 μg. […] The band intensity was […] using an Immuno Star LD (Wako). Band intensity was measured using an LAS-4000 UV mini Luminescent Image Analyzer (Fujifilm, Tokyo Japan) and Multi Gauge Version 3.0 (Fujifilm). The phosphorylation of ERK1/2, Akt, and p38 MAPK was measured by normalizing against total ERK1/2, total Akt, and total p38 MAPK. […]

[2] = tested on: p27; assay: Immunoblotting, p27 expression in GL261; assay type: cell-based, mouse; settings: GL261, 10 µM, 48 h
Experimental: as §1, with “μg. Equal amounts of protein in sample buffer containing 10% 2-mercaptoethanol were subjected to sodium dodecyl sulphate polyacrylamide gel electrophoresis (SDS-PAGE) in 5-20% gradient gels (SuperSep Ace; Wako), and the separated proteins were transferred to polyvinylidene difluoride membrane (Immobilon-P; Merck Millipore Corporation, Bedford, MA, USA). After blocking for 30 min with Blocking One-P (Nacalai Tesque), we incubated the membranes with primary antibodies overnight at 4 °C.” for “μg.”

[3] = ICR, mouse, in vivo, po
Experimental: In the experiment of the murine orthotopic glioblastoma model, oral administration of each astaxanthin (10 and 30 mg/kg) and adonixanthin (10 and 30 mg/kg) was initiated 3 days after intracranial injection of GL261 cells and was continued for 10 days. In the experiment of the brain tissue absorption with oral astaxanthin or adonixanthin, after one week of adaptation, ICR mice were randomly divided into the following three groups: control group, astaxanthin group (50 mg/kg), and adonixanthin group (50 mg/kg). Mice were orally administered each reagent suspended in olive oil (5 mL/kg) by the daily single dose for 10 days. The control group was treated by olive oil alone (5 mL/kg).
In mice, blood samples were collected under anaesthesia by using sodium pentobarbital (50 mg/kg, 10 mL/kg, i.p). To separate serum and from blood, we centrifuged at 1700 g for 10 min. […]
Carotenoid fraction was collected from blood and some tissues by silica gel HPLC using a Cosmosil 5SL-II column with acetone:hexane (2:8, v/v) for the mobile phase at a flow rate of 1.0 mL/min as described above. […] Identification of each carotenoid was performed by authentic carotenoids obtained from Paracoccus (ENEOS Corporation, Tokyo, Japan) by our routine methods and the content of each carotenoid was calculated from peak areas by comparison with the authentic samples.

[4] = tested on: GL261 cells; assay: BrdU cell proliferation assay; assay type: cell-based, mouse; settings: GL261, 10 µM treatment for 72 h; control group 60.56 ± 1.40%
Experimental: GL261 cells were seeded onto 96-well plates at a density of 2 × 10^3 cells/well with DMEM supplemented with 10% FBS and then incubated for 24 h, after which the culture medium was changed to DMEM containing 10% FBS. Then, astaxanthin, adonixanthin, or temozolomide (Tokyo Chemical Industry Co., Ltd., Tokyo, Japan) were added to the culture. After 72 h of culture, the culture medium was changed to DMEM containing 10% FBS and treated with BrdU at 10 µM for 3 h. After that, immunocytochemistry was performed according to the protocol of anti-BrdU antibody (abcam, ab6326).

[5] = tested on: MMP-2; assay: Immunoblotting, MMP-2 expression in GL261; assay type: cell-based, mouse; settings: GL261, 10 µM, 48 h
Experimental: as §1

Row | Compound | phosphorylation of Akt [1] | expression of p27 [2] | concentration detected in the brain [3] | BrdU-positive cell rate [4] [%] | MMP-2 expression [5]
1 | CC1=C(/C=C/C(C)=C/C=C/C(C)=C/C=C/C=C(C)/C=C/C=C(C)/C=C/C2=C(C)C(=O)[C@@H](O)CC2(C)C)C(C)(C)C[C@H](O)C1=O [Astaxanthin, astaxanthin] | decreased | increased | approximately 30 nM | 49.13 ± 2.66 | decreased
2 | CC1=C(/C=C/C(C)=C/C=C/C(C)=C/C=C/C=C(C)/C=C/C=C(C)/C=C/C2=C(C)C(=O)[C@@H](O)CC2(C)C)C(C)(C)C[C@H](O)C1 [Adonixanthin, adonixanthin] | decreased | increased | ~10 nM | 41.31 ± 1.51 | decreased
